For one data set, the system named is Ts65Dn mice. Put plainly: Cognitive impairment tests in Ts65Dn mice (object location, object recognition, T-maze, fear conditioning). The format is in vivo. The settings on record: i.p. 0.2 mg/kg, one week; four cognitive tests. An excerpt: FIG. 4: In vivo assessment of the efficacy of the selected NKCC1 inhibitor in Ts65Dn mice. (a) Quantification of the discrimination index in mice treated with vehicle (WT, n=14, Ts65Dn, n=10;) or 3.17 (WT, n=14, Ts65Dn, n=11;) ***P<0.001; two-way ANOVA Tukey's post hoc test. (b) Quantification of the discrimination index in mice treated with vehicle (WT, n=14, Ts65Dn, n=10;) or 3.17 (WT, n=14, Ts65Dn, n=11) *P<0.05, **P<0.01 two-way ANOVA Tukey's post hoc test. (c) Quantification of the correct choices in mice treated with vehicle (WT, n=14, Ts65Dn, n=10;) or 3.17 (WT, n=14, Ts65Dn, n=11;) ***P<0.001; two-way ANOVA Tukey's post hoc test. (d) Quantification of the freezing response in mice treated with vehicle (WT, n=14, Ts65Dn, n=10;) or 3.17 (WT, n=14, Ts65Dn, n=11;) *P<0.05, **P<0.01 two-way ANOVA Tukey's post hoc test.
The efficacy of compound 3.17 in rescuing cognitive impairment in four different cognitive tests in Ts65Dn mice (FIG. 4) has been evaluated. Adult Ts65Dn mice and their WT littermates were treated (2 months old) for one week with 3.17 (i.p. 0.2 mg/kg) or its vehicle. For the following three weeks, the animals were tested in four different tasks assessing memory and cognition: a) novel object location task (Deidda, G. et al. Reversing excitatory GABAAR signaling restores synaptic plasticity and memory in a mouse model of Down syndrome. […]

A short description of a further data set: Stability in plasma. The format is in vitro ADME. To be noted: resistance to hydrolysis, read-out: t½ in plasma. The procedure: (§1) FIG. 3: Assessment of drug-likeness of a selected compound, compound 3.17. a) Chemicophysical properties of bumetanide and compound 3.17 by LC-MS analysis. b) Comparison between urinary volume of WT mice (C57Bl/6N) two hours after treatment with bumetanide (0.2 mg/kg) and compound 3.17 (0.2 mg/kg). c) Assessment of urinary volume of Ts65Dn mouse model of Down syndrome and WT littermates two hours after treatment with compound 3.17 (0.2 mg/kg). Number in parenthesis: number of analyzed animals. Data represents mean±sem, and they are presented as % of the respective vehicle.
(§2) The selected NKCC1 inhibitor compound 3.17 has been evaluated for solubility in aqueous buffers, and stability in plasma and phase I metabolism in vitro (FIG. 3a).

A short description of data set [1]: Phase I metabolism in liver microsomes. The settings on record: read-out: t½ in liver microsomes. The format is in vitro ADME. The procedure: as §1, §2

With `CN(C)S(=O)(=O)c1cc(C(=O)O)ccc1NCCCCCCCC(F)(F)F` [Compound 3.17, 3-(dimethylsulfamoyl)-4-(8,8,8-trifluorooctylamino) benzoic acid], in the data set on Ts65Dn mice, the “cognitive performance of Ts65Dn mice” value is recorded as “ameliorated”. Moreover, the half-life in “Stability in plasma” is greater than 2 h; in data set [1] it was greater than 1 h.
